Data taken from patent US20240239771A1, “BACTERIAL EFFLUX PUMP INHIBITORS” (priority 2020, published 2024).
Counter-ions that a name gives are not always drawn. Like-named read-outs stand apart in the source and are kept apart here.

Legend:
[1] = system: Pseudomonas aeruginosa ATCC 27853; test: Intrinsic MIC assay (CLSI broth microdilution); format: cell-based
Protocol: MIC assays were conducted in accordance with Clinical and Laboratory Standards Institute (CLSI) guidelines for broth microdilution. A 96-well plate containing cation-adjusted Mueller-Hinton (CAMH broth with 2-fold serial dilution of compounds was inoculated with log-phase bacterial at 5×10^5 CFU/mL. The final volume in each well was 100 μL. Each compound was tested in duplicate. The microtiter plates were incubated in an aerobic environment for 18 hours at 37° C. Then the bacterial growth was tested by reading the plate with a VersaMax plate reader (Molecular Devices, Inc.) at 600 nm. The MIC was defined as the lowest compound concentration that inhibited 90% of bacteria growth.
The intrinsic MIC of the experimental EPIs was tested with the method described. The 2-fold serial dilution begins with 100 μg/mL of tested compound in the first column of the 96-well plates. The following Gram-negative bacterial strain was included in these assays: Pseudomonas aeruginosa ATCC 27853.

[2] = system: Pseudomonas aeruginosa ATCC 27853; test: Standard EPI assay: MIC of test antibiotic in absence and presence of EPI; format: cell-based; conditions: for Enhanced Antibiotic's Activity (fold increase), Ceftazidime: ceftazidime with compound at 6.25 μg/mL, relative to MIC without EPI (2 μg/mL); for Enhanced Antibiotic's Activity (fold increase), Doxycycline: doxycycline with compound at 6.25 μg/mL, relative to MIC without EPI (32 μg/mL); for Enhanced Antibiotic's Activity (fold increase), Levofloxacin: levofloxacin with compound at 6.25 μg/mL, relative to MIC without EPI (1 μg/mL); for MIC of antibiotic in the absence of EPI: antibiotic alone, P. aeruginosa ATCC 27853
Protocol: The EPI assay for the purposes of these studies represents a MIC assay in which the MIC of the antibiotic against the bacteria is tested in the presence of an experimental efflux pump inhibitor (EPI). The highest concentration of the EPI present in the assay typically is ½ of the intrinsic MIC of the compound. If the intrinsic MIC of the EPI is greater than 100 μg/mL, the EPI assay was tested with 50 μg/mL. Using serial dilutions of the EPI, its enhancement of antibiotic activity was then evaluated. The relative EPI activity was decided by comparing the MIC of the antibiotic in the presence of the EPI compound with the intrinsic MIC of the antibiotic alone.
The impact of the EPIs on the MIC values of three test antibiotics (levofloxacin, ceftazidime and doxycycline) against P. aeruginosa ATCC 27853 were evaluated using our standard EPI assay. All three antibiotics levofloxacin, ceftazidime and doxycycline are known substrates of efflux pumps in P. aeruginosa, and are thus well-suited to be test antibiotics to assay for EPI activity.
In our standard EPI assay, the MIC of the test antibiotic is determined in the absence and presence of sub-inhibitory concentrations of the EPI. […] The MIC of levofloxacin against P. aeruginosa ATCC 27853 in the absence of EPI is 1 μg/mL. […] Similarly, the MIC of ceftazidime against P. aeruginosa ATCC 27853 in the absence of EPI is 2 μg/mL. In the presence of 6.25 μg/mL of the Example 4, the MIC of ceftazidime was reduced to 0.5 μg/mL, a 4-fold reduction. […] For all the examples in Table 1, the potentiation activities are determined at 6.25 μg/mL.

[3] = ATCC27853, read-out: Intrinsic MIC of Compound

MIC ([1]; ATCC27853, P. aeruginosa ATCC 27853, compound alone, read-out: Intrinsic MIC of Compound)	MIC of antibiotic in the absence of EPI [2]	SMILES	MIC [1, 3]	Enhanced Antibiotic's Activity (fold increase), Ceftazidime [2]	Enhanced Antibiotic's Activity (fold increase), Doxycycline [2]	Enhanced Antibiotic's Activity (fold increase), Levofloxacin [2]
		NC[C@H]1CN[C@H](CNC(=O)c2[nH]c3ccccc3c2-c2ccc(F)cc2)C1=O [Example 25, N-(((2R,4S)-4-(aminomethyl)-3-oxopyrrolidin-2-yl)methyl)-3-(4-fluorophenyl)-1H-indole-2-carboxamide hydrogen chloride salt]	> 100 µg/mL	1 fold	1 fold	1 (1) fold
		NCCOC[C@H](N)CNC(=O)c1cc2ccc(-c3ccc(F)cc3)cc2[nH]1 [Example 31, (R)—N-(2-amino-3-(2-aminoethoxy)propyl)-6-(4-fluorophenyl)-1H-indole-2-carboxamide hydrogen chloride salt]	> 200 µg/mL	4 fold	32 fold	8 fold
		NC[C@H]1CN[C@H](CNC(=O)c2[nH]c3ccc(F)cc3c2-c2ccccc2)[C@H]1O [Example 24, N-(((2R,3S,4S)-4-(aminomethyl)-3-hydroxypyrrolidin-2-yl)methyl)-5-fluoro-3-phenyl-1H-indole-2-carboxamide hydrogen chloride salt]	> 100 µg/mL			16 fold
		NCC(O)C[C@H](N)CNC(=O)c1[nH]c2ccccc2c1-c1ccccc1 (stereo partly drawn) [Example 12, N-((2S)-2,5-diamino-4-hydroxypentyl)-3-phenyl-1H-indole-2-carboxamide hydrogen chloride salt]	> 100 µg/mL	2 fold	32 fold	16 fold
		NCC(O)C[C@H](N)CNC(=O)c1[nH]c2ccc(F)cc2c1-c1ccccc1 (stereo partly drawn) [Example 13, N-((2S)-2,5-diamino-4-hydroxypentyl)-5-fluoro-3-phenyl-1H-indole-2-carboxamide hydrogen chloride salt]	> 100 µg/mL	2 fold	32 fold	32 fold
		N#Cc1ccc(-c2c(C(=O)NC[C@@H](N)COCCN)[nH]c3ccc(F)cc23)cc1 [Example 20, (R)—N-(2-amino-3-(2-aminoethoxy)propyl)-3-(4-cyanophenyl)-5-fluoro-1H-indole-2-carboxamide hydrogen chloride salt]	> 100 µg/mL	2 fold	16 fold	16 fold
		NCCOC[C@H](N)CNC(=O)c1[nH]c2ccc(F)cc2c1C1CCCCC1 [Example 22, (R)—N-(2-amino-3-(2-aminoethoxy)propyl)-3-cyclohexyl-5-fluoro-1H-indole-2-carboxamide hydrogen chloride salt]	25 µg/mL			32 fold
		NCC(O)C[C@H](N)CNC(=O)c1[nH]c2ccccc2c1C1CCCCC1 (stereo partly drawn) [Example 15, 3-cyclohexyl-N-((2S)-2,5-diamino-4-hydroxypentyl)-1H-indole-2-carboxamide hydrogen chloride salt]	50 µg/mL	4 fold	32 fold	32 fold
		NCC(O)C[C@H](N)CNC(=O)c1[nH]c2ccccc2c1-c1ccc(F)cc1 (stereo partly drawn) [Example 10, 3-(4-fluorophenyl)-N-((2S)-2,5-diamino-4-hydroxypentyl)-1H-indole-2-carboxamide hydrogen chloride salt]	100 µg/mL	4 fold	32 fold	16 fold
		NC[C@@H](O)C[C@H](N)CNC(=O)c1cc2ccc(-c3ccc(F)cc3)cc2[nH]1 [Example 30, 6-(4-fluorophenyl)-N-((2S)-2,5-diamino-4-hydroxypentyl)-1H-indole-2-carboxamide hydrogen chloride salt]	50 µg/mL			16 fold
		NCCOC[C@H](N)CNC(=O)c1[nH]c2ccccc2c1-c1ccccc1 [Example 21, (R)—N-(2-amino-3-(2-aminoethoxy)propyl)-3-phenyl-1H-indole-2-carboxamide hydrogen chloride salt]	> 100 µg/mL	1 fold	16 fold	4 fold
		NCC1(O)CN[C@H](CNC(=O)c2[nH]c3ccc(F)cc3c2-c2ccccc2Cl)C1 (stereo partly drawn) [Example 27, N-(((2S)-4-(aminomethyl)-4-hydroxypyrrolidin-2-yl)methyl)-3-(2-chlorophenyl)-5-fluoro-1H-indole-2-carboxamide hydrogen chloride salt]	> 100 µg/mL			1 (1) fold
100 µg/mL		NCC(O)[C@H](N)CNC(=O)c1[nH]c2ccccc2c1C1CCCC1 (stereo partly drawn) [Example 36, 3-cyclopentyl-N-((2R)-2,4-diamino-3-hydroxybutyl)-1H-indole-2-carboxamide]		2 fold	32 fold	8 fold
	1 µg/mL	C[C@H]1COc2c(N3CCN(C)CC3)c(F)cc3c(=O)c(C(=O)O)cn1c23 [levofloxacin, Levofloxacin, reference compound]				
	2 µg/mL	CC(C)(O/N=C(\C(=O)N[C@@H]1C(=O)N2C(C(=O)[O-])=C(C[n+]3ccccc3)CS[C@H]12)c1csc(N)n1)C(=O)O [ceftazidime, Ceftazidime, reference compound]				
		NCC(CO)C[C@@H](N)CNC(=O)c1[nH]c2ccccc2c1-c1ccc(F)cc1 (stereo partly drawn) [Example 16, N-((2R)-2,5-diamino-4-(hydroxymethyl)pentyl)-3-(4-fluorophenyl)-1H-indole-2-carboxamide hydrogen chloride salt]	> 100 µg/mL	2 fold	32 fold	16 fold
		NCC[C@@H](O)[C@@H](N)CNC(=O)c1[nH]c2ccccc2c1-c1ccc(F)cc1 [Example 1, N-((2S,3R)-2,5-diamino-3-hydroxypentyl)-3-(4-fluorophenyl)-1H-indole-2-carboxamide hydrogen chloride salt]	> 100 µg/mL	1 fold	16 fold	8 fold
		NCCC(O)[C@@H](N)CNC(=O)c1[nH]c2ccccc2c1-c1ccccc1F (stereo partly drawn) [Example 7, N-((2S)-2,5-diamino-3-hydroxypentyl)-3-(2-fluorophenyl)-1H-indole-2-carboxamide hydrogen chloride salt]	> 100 µg/mL	1 fold	4 fold	2 fold
		NCCC(O)[C@@H](N)CNC(=O)c1[nH]c2ccccc2c1-c1ccccc1 (stereo partly drawn) [Example 2, N-((2S)-2,5-diamino-3-hydroxypentyl)-3-phenyl-1H-indole-2-carboxamide hydrogen chloride salt]	> 100 µg/mL		16 fold	8 fold
		NCCC(O)[C@@H](N)CNC(=O)c1[nH]c2ccc(F)cc2c1C1CCCCC1 (stereo partly drawn) [Example 5, 3-cyclohexyl-N-((2S)-2,5-diamino-3-hydroxypentyl)-5-fluoro-1H-indole-2-carboxamide hydrogen chloride salt]	50 µg/mL	16 fold	32 fold	32 fold
	32 µg/mL	C[C@H]1c2cccc(O)c2C(=O)C2=C(O)[C@]3(O)C(=O)C(C(N)=O)=C(O)[C@@H](N(C)C)[C@@H]3[C@@H](O)[C@@H]21 [doxycycline, Doxycycline, reference compound]				
